Source: patent US7598258B2, “Quinoline derivatives and quinazoline derivatives inhibiting autophosphorylation of macrophage colony stimulating factor receptor” (Kirin Beer Kabushiki Kaisha, priority 2002, dated 2009)
pIC50: −log10 of the molar value.

Molecular target: T1, Human KDR (Homo sapiens, UniProt P35968)
T1 construct: expressed in transfected cells; host or cells: NIH3T3 cells (mouse fibroblasts)
Experiment: Inhibition of KDR phosphorylation in human KDR-transfected NIH3T3 cells (ELISA)
Type: cell-based
Conditions: for Selection ratio (KDR phosphorylation IC50 / c-fms phosphorylation IC50): class 0-3; for pIC50: human KDR-transfected NIH3T3 cells, VEGF 100 ng/ml, ELISA, read-out: KDR phosphorylation 50% inhibitory concentration (IC50)
Experimental: Human KDR-transfected NIH3T3 cells (Sawano A et al., Cell Growth & Differentiation, 7, 213-221 (1996)) were cultured in a DMEM medium containing 10% fetal calf serum (purchased from GIBCO BRL) within a 5% carbon dioxide incubator until 50 to 70% confluent. The harvested cells were seeded into wells, containing the same medium, in a collagen type 1 coat 96-well flat-bottom plate in an amount of 1.5×10^4 per well, and cultured at 37° C. overnight. The medium was replaced with a 0.1% fetal calf serum-containing DMEM medium. The test compound dissolved in dimethyl sulfoxide was added to each well, and the cultivation was continued at 37° C. for additional one hr. A human recombinant vascular endothelial growth factor (hereinafter abbreviated to “VEGF”) was added to a final concentration of 100 ng/ml, followed by stimulation of cells at 37° C. for 2 min. The medium was removed, and the cells were washed with phosphate buffered saline (pH 7.4). A solubilization buffer (50 μl) (20 mM HEPES (pH 7.4), 150 mM NaCl, 0.2% Triton X-100, 10% glycerol, 5 mM sodium orthovanadylate, 5 mM disodium ethylenediaminetetraacetate, and 2 mM Na4P2O7) was then added thereto. The mixture was shaken at 4° C. for 2 hr to prepare a cell extract.
Separately, phosphate buffered saline (50 μl, pH 7.4) containing 5 μg/ml of anti-phospho-tyrosine antibody (PY20; purchased from Transduction Laboratories) was added to a microplate for ELISA (Maxisorp; purchased from NUNC), followed by standing at 4° C. overnight to be immobilized on the wells. After washing of the plate, 300 μl of a blocking solution was added, followed by standing at room temperature for 2 hr to perform blocking. After washing, the whole cell extract was transferred and was allowed to stand at 4° C. overnight. After washing, an anti-KDR antibody (purchased from Santa Cruz Biotechnology) was allowed to react at room temperature for one hr. Further, after washing, a peroxidase-labeled anti-rabbit Ig antibody (purchased from Amersham) was allowed to react at room temperature for one hr. After washing, a chromophoric substrate for peroxidase (purchased from Sumitomo Bakelite Co., Ltd.) was added thereto to initiate a reaction. After a suitable level of color development, a reaction termination solution was added to stop the reaction, and the absorbance at 450 nm was measured with a microplate reader. The KDR phosphorylation activity for each well was determined by presuming the absorbance without the addition of the test compound and with the addition of VEGF to be 100% KDR phosphorylation activity and the absorbance without the addition of the test compound and VEGF to be 0% KDR phosphorylation activity. The concentration of the test compound was varied on several levels, the KDR phosphorylation inhibitory rate was determined for each case, and the concentration of the test compound necessary for inhibiting 50% of KDR phosphorylation (IC50) was calculated.

T1 sequence (P35968 20-1356): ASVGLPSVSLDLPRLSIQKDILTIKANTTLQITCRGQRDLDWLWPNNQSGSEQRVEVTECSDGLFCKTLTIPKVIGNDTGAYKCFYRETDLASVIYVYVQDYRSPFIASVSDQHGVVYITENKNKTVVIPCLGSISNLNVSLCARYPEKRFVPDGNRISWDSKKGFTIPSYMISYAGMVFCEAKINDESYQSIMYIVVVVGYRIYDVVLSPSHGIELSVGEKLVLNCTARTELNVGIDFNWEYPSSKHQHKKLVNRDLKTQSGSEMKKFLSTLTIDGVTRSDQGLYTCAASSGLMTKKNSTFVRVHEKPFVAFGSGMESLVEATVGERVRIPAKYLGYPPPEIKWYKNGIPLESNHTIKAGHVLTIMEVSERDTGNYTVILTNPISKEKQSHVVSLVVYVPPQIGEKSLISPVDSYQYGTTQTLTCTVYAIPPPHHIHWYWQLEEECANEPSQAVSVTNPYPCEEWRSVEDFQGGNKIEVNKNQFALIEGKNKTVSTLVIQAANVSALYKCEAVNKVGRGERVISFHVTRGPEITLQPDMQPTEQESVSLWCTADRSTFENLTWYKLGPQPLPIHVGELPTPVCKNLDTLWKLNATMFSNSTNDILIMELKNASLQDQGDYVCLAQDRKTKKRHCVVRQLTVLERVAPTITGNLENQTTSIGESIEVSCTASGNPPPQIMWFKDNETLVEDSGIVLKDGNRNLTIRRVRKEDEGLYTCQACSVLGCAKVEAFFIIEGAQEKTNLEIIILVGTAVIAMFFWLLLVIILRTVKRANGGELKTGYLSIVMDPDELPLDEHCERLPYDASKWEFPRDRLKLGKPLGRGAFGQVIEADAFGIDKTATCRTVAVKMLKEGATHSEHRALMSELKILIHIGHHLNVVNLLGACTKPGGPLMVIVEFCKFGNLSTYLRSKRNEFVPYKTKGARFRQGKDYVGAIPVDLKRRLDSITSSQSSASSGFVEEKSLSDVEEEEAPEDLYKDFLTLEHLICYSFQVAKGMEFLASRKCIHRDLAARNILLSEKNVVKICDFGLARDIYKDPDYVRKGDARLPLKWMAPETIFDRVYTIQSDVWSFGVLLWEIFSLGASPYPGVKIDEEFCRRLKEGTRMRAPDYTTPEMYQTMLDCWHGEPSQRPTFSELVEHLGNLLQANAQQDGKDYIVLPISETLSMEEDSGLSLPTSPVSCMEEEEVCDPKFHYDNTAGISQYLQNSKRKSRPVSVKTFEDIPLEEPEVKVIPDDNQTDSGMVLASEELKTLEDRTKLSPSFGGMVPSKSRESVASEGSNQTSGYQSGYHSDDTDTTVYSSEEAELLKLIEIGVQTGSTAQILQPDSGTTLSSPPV

| SMILES | pIC50 | Selection ratio (KDR phosphorylation IC50 / c-fms phosphorylation IC50) |
| --- | --- | --- |
| COc1cc2nccc(Oc3ccc(NC(=O)N[C@@H](C)c4ccc(F)cc4)cc3OC)c2cc1OC [Example 23, N-{4-[(6,7-Dimethoxy-4-quinolyl)oxy]-3-methoxyphenyl}-N′-[(1S)-1-(4-fluorophenyl)ethyl]urea] | 6.22 | 3 (when the value was 50 or more) |
| COc1cc2nccc(Oc3ccc(NC(=O)NC(C)c4ccc(F)cc4)c(C)c3C)c2cc1OC (stereo not drawn) [Example 25, N-{4-[(6,7-Dimethoxy-4-quinolyl)oxy]-2,3-dimethylphenyl}-N′-[1-(4-fluorophenyl)ethyl]urea] | 8.46 | 0 (KDR phosphorylation 50% inhibitory concentration [μM]/c-fms phosphorylation 50% inhibitory concentration [μM] was less than 5) |
| COc1cc2nccc(Oc3ccc(NC(=O)N[C@@H](C)c4ccc(F)cc4)c(C)c3C)c2cc1OC [Example 26, N-{4-[(6,7-Dimethoxy-4-quinolyl)oxy]-2,3-dimethylphenyl}-N′-[(1S)-1-(4-fluorophenyl)ethyl]urea] | 6.81 | 1 (when the value was 5 or more) |
| COc1cc2nccc(Oc3ccc(NC(=O)N[C@@H](C)c4ccc(F)cc4)c(F)c3)c2cc1OC [Example 29, N-{4-[(6,7-Dimethoxy-4-quinolyl)oxy]-2-fluorophenyl}-N′-[(1S)-1-(4-fluorophenyl)ethyl]urea] | 7.56 | 2 (when the value was 10 or more) |
| COc1cc2nccc(Oc3ccc(NC(=O)N[C@@H](C)c4ccc(F)cc4)cc3F)c2cc1OC [Example 32, N-{4-[(6,7-Dimethoxy-4-quinolyl)oxy]-3-fluorophenyl}-N′-[(1S)-1-(4-fluorophenyl)ethyl]urea] | 7.53 | 1 (when the value was 5 or more) |
| COc1cc2nccc(Oc3ccc(NC(=O)N[C@@H](C)c4ccc(Br)cc4)cc3)c2cc1OC [Example 34, N-[(1S)-1-(4-Bromophenyl)ethyl]-N′-{4-[(6,7-dimethoxy-4-quinolyl)oxy]phenyl}urea] | 6.53 | 2 (when the value was 10 or more) |
| COc1cc2nccc(Oc3ccc(NC(=O)N[C@@H](C)c4ccccc4OC)cc3)c2cc1OC [Example 51, N-{4-[(6,7-Dimethoxy-4-quinolyl)oxy]phenyl}-N′-[(1S)-1-(2-methoxyphenyl)ethyl]urea] | 7.42 | 1 (when the value was 5 or more) |
| COc1cc2nccc(Oc3ccc(NC(=O)N[C@H](C)c4ccccc4OC)cc3)c2cc1OC [Example 52, N-{4-[(6,7-Dimethoxy-4-quinolyl)oxy]phenyl}-N′-[(1R)-1-(2-methoxyphenyl)ethyl]urea] | 8.14 | 0 (KDR phosphorylation 50% inhibitory concentration [μM]/c-fms phosphorylation 50% inhibitory concentration [μM] was less than 5) |
| COc1ccc([C@H](C)NC(=O)Nc2ccc(Oc3ccnc4cc(OC)c(OC)cc34)cc2)cc1 [Example 53, N-{4-[(6,7-Dimethoxy-4-quinolyl)oxy]phenyl}-N′-[(1S)-1-(4-methoxyphenyl)ethyl]urea] | 7.43 | 2 (when the value was 10 or more) |
| COc1ccc([C@@H](C)NC(=O)Nc2ccc(Oc3ccnc4cc(OC)c(OC)cc34)cc2)cc1 [Example 54, N-{4-[(6,7-Dimethoxy-4-quinolyl)oxy]phenyl}-N′-[(1R)-1-(4-methoxyphenyl)ethyl]urea] | 6.24 | 1 (when the value was 5 or more) |
| COc1cc2nccc(Oc3cc(C)c(NC(=O)N[C@H](C)c4cccc(Br)c4)cc3C)c2cc1OC [Example 56, N-[(1R)-1-(3-Bromophenyl)ethyl]-N′-{4-[(6,7-dimethoxy-4-quinolyl)oxy]-2,5-dimethylphenyl}urea] | 8.02 | 0 (KDR phosphorylation 50% inhibitory concentration [μM]/c-fms phosphorylation 50% inhibitory concentration [μM] was less than 5) |

Now those with a higher pIC50, led by results:

| pIC50 | SMILES | Selection ratio (KDR phosphorylation IC50 / c-fms phosphorylation IC50) |
| --- | --- | --- |
| 8.62 | COc1cc2nccc(Oc3ccc(NC(=O)N[C@H](C)c4ccc(F)cc4)cc3OC)c2cc1OC [Example 24, N-{4-[(6,7-Dimethoxy-4-quinolyl)oxy]-3-methoxyphenyl}-N′-[(1R)-1-(4-fluorophenyl)ethyl]urea] | 0 (KDR phosphorylation 50% inhibitory concentration [μM]/c-fms phosphorylation 50% inhibitory concentration [μM] was less than 5) |
| 8.70 | COc1cc2nccc(Oc3ccc(NC(=O)N[C@H](C)c4ccc(F)cc4)c(C)c3C)c2cc1OC [Example 27, N-{4-[(6,7-Dimethoxy-4-quinolyl)oxy]-2,3-dimethylphenyl}-N′-[(1R)-1-(4-fluorophenyl)ethyl]urea] | 0 (KDR phosphorylation 50% inhibitory concentration [μM]/c-fms phosphorylation 50% inhibitory concentration [μM] was less than 5) |
| > 9.00 | COc1cc2nccc(Oc3ccc(NC(=O)NC(C)c4ccc(F)cc4)c(F)c3)c2cc1OC (stereo not drawn) [Example 28, N-{4-[(6,7-Dimethoxy-4-quinolyl)oxy]-2-fluorophenyl}-N′-[1-(4-fluorophenyl)ethyl]urea] | 0 (KDR phosphorylation 50% inhibitory concentration [μM]/c-fms phosphorylation 50% inhibitory concentration [μM] was less than 5) |
| > 9.00 | COc1cc2nccc(Oc3ccc(NC(=O)N[C@H](C)c4ccc(F)cc4)c(F)c3)c2cc1OC [Example 30, N-{4-[(6,7-Dimethoxy-4-quinolyl)oxy]-2-fluorophenyl}-N′-[(1R)-1-(4-fluorophenyl)ethyl]urea] | 0 (KDR phosphorylation 50% inhibitory concentration [μM]/c-fms phosphorylation 50% inhibitory concentration [μM] was less than 5) |
| 9.00 | COc1cc2nccc(Oc3ccc(NC(=O)NC(C)c4ccc(F)cc4)cc3F)c2cc1OC (stereo not drawn) [Example 31, N-{4-[(6,7-Dimethoxy-4-quinolyl)oxy]-3-fluorophenyl}-N′-[1-(4-fluorophenyl)ethyl]urea] | 0 (KDR phosphorylation 50% inhibitory concentration [μM]/c-fms phosphorylation 50% inhibitory concentration [μM] was less than 5) |
| > 9.00 | COc1cc2nccc(Oc3ccc(NC(=O)N[C@H](C)c4ccc(F)cc4)cc3F)c2cc1OC [Example 33, N-{4-[(6,7-Dimethoxy-4-quinolyl)oxy]-3-fluorophenyl}-N′-[(1R)-1-(4-fluorophenyl)ethyl]urea] | 0 (KDR phosphorylation 50% inhibitory concentration [μM]/c-fms phosphorylation 50% inhibitory concentration [μM] was less than 5) |
| 8.80 | COc1cc2nccc(Oc3ccc(NC(=O)N[C@H](C)c4cccc(Br)c4)c(Cl)c3)c2cc1OC [Example 55, N-[(1R)-1-(3-Bromophenyl)ethyl]-N′-{2-chloro-4-[(6,7-dimethoxy-4-quinolyl)oxy]phenyl}urea] | 0 (KDR phosphorylation 50% inhibitory concentration [μM]/c-fms phosphorylation 50% inhibitory concentration [μM] was less than 5) |
